The values below are quoted from earlier work in paper PMC3206815, “An Essential Farnesylated Kinesin in Trypanosoma brucei” (PLoS ONE, 2011).

One may read the IC50 as the midpoint of a concentration-inhibition curve.

The series concerns the target T1, TB-PFT (T. brucei protein farnesyl transferase) (Trypanosoma brucei, UniProt Q57U08+Q580J3).
T1 construct: gene Tb07.8P12.660; heterodimer
T1 sequence (Q57U08 1-585): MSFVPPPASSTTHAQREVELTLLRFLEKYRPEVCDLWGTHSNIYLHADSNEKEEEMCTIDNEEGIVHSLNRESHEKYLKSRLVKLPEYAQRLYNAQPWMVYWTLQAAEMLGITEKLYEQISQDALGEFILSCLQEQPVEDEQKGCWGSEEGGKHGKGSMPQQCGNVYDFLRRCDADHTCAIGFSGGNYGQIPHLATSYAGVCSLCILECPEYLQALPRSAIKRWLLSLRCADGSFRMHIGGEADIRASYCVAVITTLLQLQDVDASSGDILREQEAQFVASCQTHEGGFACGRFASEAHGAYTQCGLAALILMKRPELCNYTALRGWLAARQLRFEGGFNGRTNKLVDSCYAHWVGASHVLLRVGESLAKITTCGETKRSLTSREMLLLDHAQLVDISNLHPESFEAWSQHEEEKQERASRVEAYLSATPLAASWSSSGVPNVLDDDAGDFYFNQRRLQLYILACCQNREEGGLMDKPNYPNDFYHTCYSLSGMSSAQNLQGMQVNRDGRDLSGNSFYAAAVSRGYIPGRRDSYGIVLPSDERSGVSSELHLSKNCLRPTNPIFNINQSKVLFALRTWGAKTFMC
T1 sequence (Q580J3 1-612): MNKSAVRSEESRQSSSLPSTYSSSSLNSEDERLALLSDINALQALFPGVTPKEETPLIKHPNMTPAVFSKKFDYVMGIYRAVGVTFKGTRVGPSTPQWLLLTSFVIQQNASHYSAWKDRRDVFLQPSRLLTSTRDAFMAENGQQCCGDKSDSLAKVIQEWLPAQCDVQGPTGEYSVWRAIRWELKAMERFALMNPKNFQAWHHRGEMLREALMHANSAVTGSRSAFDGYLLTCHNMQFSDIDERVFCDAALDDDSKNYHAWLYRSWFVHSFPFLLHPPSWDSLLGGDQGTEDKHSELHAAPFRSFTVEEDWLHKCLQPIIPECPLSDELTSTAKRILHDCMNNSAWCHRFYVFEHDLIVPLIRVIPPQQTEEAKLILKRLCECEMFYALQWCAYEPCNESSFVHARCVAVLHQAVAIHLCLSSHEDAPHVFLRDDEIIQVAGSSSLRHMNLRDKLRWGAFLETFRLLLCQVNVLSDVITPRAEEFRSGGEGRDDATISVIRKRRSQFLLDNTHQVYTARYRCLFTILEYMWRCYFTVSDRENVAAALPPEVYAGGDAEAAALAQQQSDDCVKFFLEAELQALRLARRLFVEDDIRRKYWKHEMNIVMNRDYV
The series can be described thus: PFT inhibition, method not described here. The series is classed as biochemical. The conditions noted are these: value printed without citation or assay method; cited from earlier work.

For LN-59, the IC50 is 35 nM.
